Results on four compounds are retold here after patent US9758491B2, “Molecules having pesticidal utility, and intermediates, compositions, and processes, related thereto” (priority 2015, dated 2017).

Holding throughout (format): in vivo
For series [1], the system named is Yellow Fever Mosquito (Aedes aegypti, AEDSAE). The series is described as follows: Bioassay on Yellow Fever Mosquito (YFM) larvae, 96-well plate. As to conditions: 4000 ppm DMSO master solution diluted, about 1 day-old larvae, room temperature, scored after 3 days. As to the method:
Certain molecules disclosed in this document were tested against YFM using procedures described in the following paragraph. In the reporting of the results, the “YFM Rating Table” was used (See Table Section).
Master plates containing 400 μg of a molecule dissolved in 100 μL of dimethyl sulfoxide (DMSO) (equivalent to a 4000 ppm solution) are used. A master plate of assembled molecules contains 15 μL per well. To this plate, 135 μL of a 90:10 water/acetone mixture is added to each well. A robot (Biomek® NXP Laboratory Automation Workstation) is programmed to dispense 15 μL aspirations from the master plate into an empty 96-well shallow plate (“daughter” plate). There are 6 reps (“daughter” plates) created per master. The created “daughter” plates are then immediately infested with YFM larvae.
The day before plates are to be treated, mosquito eggs are placed in Millipore water containing liver powder to begin hatching (4 g into 400 mL). After the “daughter” plates are created using the robot, they are infested with 220 μL of the liver powder/larval mosquito mixture (about 1 day-old larvae). After plates are infested with mosquito larvae, a non-evaporative lid is used to cover the plate to reduce drying. Plates are held at room temperature for 3 days prior to grading. After 3 days, each well is observed and scored based on mortality. The results are indicated in the table entitled “Table ABC: Biological Results” (See Table Section).

The subject of series [2] is Cabbage Looper (Trichoplusia ni, TRIPNI). The experiment in a line: Bioassay on Cabbage Looper (CL), 128-well diet tray assay. To be noted: 168 h, 50 μg/cm^2 on artificial diet, second instar larvae, 25° C., five to seven days, average of eight wells, read-out: CL rating, % Control (or Mortality). As to the method:
(§1) Certain molecules disclosed in this document were tested against BAW and CL using procedures described in the following examples. In the reporting of the results, the “BAW & CL Rating Table” was used (See Table Section).
Bioassays on CL were conducted using a 128-well diet tray assay. One to five second instar CL larvae were placed in each well (3 mL) of the diet tray that had been previously filled with 1 mL of artificial diet to which 50 μg/cm^2 of the test molecule (dissolved in 50 μL of 90:10 acetone-water mixture) had been applied (to each of eight wells) and then allowed to dry. Trays were covered with a clear self-adhesive cover, vented to allow gas exchange, and held at 25° C., 14:10 light-dark for five to seven days. Percent mortality was recorded for the larvae in each well; activity in the eight wells was then averaged. The results are indicated in the table entitled “Table ABC: Biological Results” (See Table Section).

Series [3] relates to Beet Armyworm (Spodoptera exigua, LAPHEG). The series is described as follows: Bioassay on Beet Armyworm (BAW), 128-well diet tray assay. As to conditions: 168 h, 50 μg/cm^2 on artificial diet, second instar larvae, 25° C., five to seven days, average of eight wells, read-out: BAW rating, % Control (or Mortality). The method, then:
as §1
Bioassays on BAW were conducted using a 128-well diet tray assay. One to five second instar BAW larvae were placed in each well (3 mL) of the diet tray that had been previously filled with 1 mL of artificial diet to which 50 μg/cm^2 of the test molecule (dissolved in 50 μL of 90:10 acetone-water mixture) had been applied (to each of eight wells) and then allowed to dry. Trays were covered with a clear self-adhesive cover, vented to allow gas exchange, and held at 25° C., 14:10 light-dark for five to seven days. Percent mortality was recorded for the larvae in each well; activity in the eight wells was then averaged. The results are indicated in the table entitled “Table ABC: Biological Results” (See Table Section).

As a reminder, the mortality is the percentage killed. Take `COc1ccccc1N1CCN/C1=N\C(=O)Nc1ccc(-c2ncn(-c3ccc(OC(F)(F)F)cc3)n2)cc1` [F18, (E)-1-(1-(2-Methoxyphenyl)imidazolidin-2-ylidene)-3-(4-(1-(4-(trifluoromethoxy)phenyl)-1H-1,2,4-triazol-3-yl)phenyl)urea]: the “YFM rating, % Control (or Mortality)” value in series [1] was “A (80-100)”. Moreover, the mortality at 50 µg/cm2 in series [2] and in series [3] was 50 to 100% throughout.

For `O=C(/N=C1\NCCN1c1ccccc1OC(F)(F)F)Nc1ccc(-c2ncn(-c3ccc(OC(F)(F)F)cc3)n2)cc1` [F19, (E)-1-(4-(1-(4-(Trifluoromethoxy)phenyl)-1H-1,2,4-triazol-3-yl)phenyl)-3-(1-(2-(trifluoromethoxy)phenyl)imidazolidin-2-ylidene)urea], the “YFM rating, % Control (or Mortality)” value in series [1] is listed as “D (No activity noticed in this bioassay)”. The mortality at 50 µg/cm2 is 50 to 100% in series [2] and 0 to 50% in series [3].

In the case of `COc1cccc(N2CCN/C2=N\C(=O)Nc2ccc(-c3ncn(-c4ccc(OC(F)(F)F)cc4)n3)cc2)c1` [F20, (E)-1-(1-(3-Methoxyphenyl)imidazolidin-2-ylidene)-3-(4-(1-(4-(trifluoromethoxy)phenyl)-1H-1,2,4-triazol-3-yl)phenyl)urea], the “YFM rating, % Control (or Mortality)” value in series [1] was “A (80-100)”. The mortality at 50 µg/cm2 in series [2] and in series [3] was 50 to 100% throughout.

As to `COc1ccc(N2CCN/C2=N\C(=O)Nc2ccc(-c3ncn(-c4ccc(OC(F)(F)F)cc4)n3)cc2)cc1` [F21, (E)-1-(1-(4-Methoxyphenyl)imidazolidin-2-ylidene)-3-(4-(1-(4-(trifluoromethoxy)phenyl)-1H-1,2,4-triazol-3-yl)phenyl)urea], in series [1], the “YFM rating, % Control (or Mortality)” value is reported as “A (80-100)”. Besides, the mortality at 50 µg/cm2 in series [2] and in series [3] was 50 to 100% throughout.
